Measurements taken from US10059733B2 (NUCORION PHARMACEUTICALS, INC., priority 2014, dated 2018).
Like-named read-outs stand apart in the source and are kept apart here.

Experiments:
HCV luciferase replicon = assay: IC50 assay: inhibition of the HCV luciferase replicon in Huh7 cells; type: cell-based
Method: After 48 h of treatment at 37° C., the media in each well was removed, the cells were gently washed once with phosphate buffered saline (PBS) and subsequently lysed by the addition of Glo Lysis Buffer (Promega). After a 15 min incubation at room temperature to allow for complete cell lysis, Bright-Glo luciferase reagent (Promega) was added to each well and the relative luciferase activity in each well was determined by using a Glowmax 96 microplate luminometer (Promega).
IC50 values determined using the above methods for inhibition of the HCV luciferase replicon in Huh7 cells are set forth in Table 1.
All compounds were purified by HPLC.

Huh7 = assay: TC50 assay with human cancer cell lines, 96 h: Huh7; type: cell-based; conditions: Huh-7, 96 h, read-out: TC50 Huh7 (μM)
Method: (§2) Huh7 cells were maintained at 37° C. in a humidified atmosphere at 5% CO2 in DMEM containing 10% FBS. […] The cells were then treated with each compound at concentrations ranging from 500 μM to 0 μM in triplicate in DMEM media containing 2% FBS and 0.5% DMSO and without phenol red. After 48 h of treatment at 37° C., the relative number of living cells in each well was determined by using the CellTiter 96 system (Promega) according to the manufacturer's instructions. The 3-(4,5-dimethylthiazol-2-yl)-5-(3-carboxymethoxyphenyl)-2-(4-sulfophenyl)-2H-tetrazolium (MTS) and phenazine methosulfate (PMS) reagents were added to each well of the 96-well plate and the plate was incubated at 37° C. for approximately 2 h. The absorbance at 490 nm and 650 nm in each well was then determined by using a Flexstation 3 microplate reader (Molecular Dynamics). The absorbance determined at 650 nm was then subtracted from the absorbance determined at 490 nm to correct for light scattering. The corrected absorbance values representing the relative number of live cells in each condition were then plotted as a function of compound concentration, and the data were then fit to the following sigmoidal Emax equation by using Kaleidagraph: y=(Emax*x^Slope)/(TC50^Slope+x^Slope) where y is the relative corrected absorbance value, Emax is the maximum relative inhibition, x is the compound concentration, TC50 is the concentration of the compound at which the total cell population is reduced by 50%, and Slope is the slope of the curve.
(§3) Huh7, HEPG2, HEK293, MCF-7 and BxPC3 cell lines were maintained at 37° C. in a humidified atmosphere at 5% CO2 in DMEM containing 10% FBS. […] The cells were then treated with each compound at concentrations ranging from 500 μM to 0 μM in triplicate in DMEM media containing 2% FBS and 0.5% DMSO and without phenol red.

HEPG2 = assay: TC50 assay with human cancer cell lines, 96 h: HEPG2; type: cell-based; conditions: HepG2, 96 h, read-out: TC50 HEPG2 (μM)
Method: as §2, §3

RPK9 cells = assay: TC50 assay in gemcitabine resistant (dCK deficient) RPK9 cells, 48 h; conditions: read-out: TC50 (μM) in RPK9 cells at 48 hr
Method: (§1) Huh7 cells were maintained at 37° C. in a humidified atmosphere at 5% CO2 in DMEM containing 10% FBS. […] The cells were then treated with each compound at concentrations ranging from 500 μM to 0 μM in triplicate in DMEM media containing 2% FBS and 0.5% DMSO and without phenol red. After 48 h of treatment at 37° C., the relative number of living cells in each well was determined by using the CellTiter 96 system (Promega) according to the manufacturer's instructions. The 3-(4,5-dimethylthiazol-2-yl)-5-(3-carboxymethoxyphenyl)-2-(4-sulfophenyl)-2H-tetrazolium (MTS) and phenazine methosulfate (PMS) reagents were added to each well of the 96-well plate and the plate was incubated at 37° C. for approximately 2 h. The absorbance at 490 nm and 650 nm in each well was then determined by using a Flexstation 3 microplate reader ([…]). The absorbance determined at 650 nm was then subtracted from the absorbance determined at 490 nm to correct for light scattering. The corrected absorbance values representing the relative number of live cells in each condition were then plotted as a function of compound concentration, and the data were then fit to the following sigmoidal Emax equation by using Kaleidagraph: y=(Emax*x^Slope)/(TC50^Slope+x^Slope) where y is the relative corrected absorbance value, Emax is the maximum relative inhibition, x is the compound concentration, TC50 is the concentration of the compound at which the total cell population is reduced by 50%, and Slope is the slope of the curve.
PK9 and RPK9 cells were maintained at 37° C. in a humidified atmosphere at 5% CO2 in Roswell Park Memorial Institute (RPMI) media containing 10% FBS. […] The cells were then treated with each compound at concentrations ranging from […] to 0 μM in triplicate in RPMI media containing 2% FBS and 0.5% DMSO and without phenol red. […] The RPK9 cells were derived from the parental PK9 cell line, and are deficient for dCK activity due to the partial deletion of the dCK gene.

Huh7 cells = assay: Cell transport: cytotoxicity in Huh7 cells with or without ENT1 inhibitor NBTI; conditions: for CC50: Homo sapiens, Huh-7, 48 h
Method: as §1
To this end, Huh7 cells or PK9 cells were seeded in 96-well plates at a density of 5,000 cells/well or 2,500 cells/well, respectively, and the plates were incubated at 37° C. for 24 h to allow for cell attachment. The media was then removed from the plates and replaced with media containing 2% FBS, 0.5% DMSO and 10 μM NBTI. […] Subsequently, the cells were treated with each compound at final concentrations ranging from 500 μM to 0 μM in triplicate in media containing 2% FBS, 0.5% DMSO and 10 μM NBTI. […] The TC50 values of each compound in the presence or absence of the ENT1 inhibitor were then compared.

[1] = pH stability in aqueous buffer (HPLC/uv)
Method: In order for a prodrug to be orally bioavailable, it must be stable over a wide range of pH values. […] The relative amount of intact prodrug was then determined by first separating the intact prodrug from any potential degradation products by using reverse-phase high performance liquid chromatography (HPLC) and subsequently quantifying the relative amount of remaining prodrug by uv spectrophotometry.

[2] = In vivo toxicology assessment in mice; set-up: species or system CD-1 ICR mice; conditions: oral gavage 20 mg/kg in Formulation I
Method: All in vivo toxicology assays were performed with CD-1 ICR mice (female, 4-6 week old; 20-30 gram body weight). Compound 1 (Table 1) was first dissolved in Formulation I containing 5% dimethyl sulfoxide (DMSO), 20% solutol, 20% PEG 400, and 55% sodium phosphate (50 mM, pH 6.0). Five mice were administered with Compound 1 in Formulation I via oral gavage at a dosage of 20 mg/kg while two other mice were orally treated with Formulation I alone (no inhibitor).

genotype 1a HCV = assay: Oral administration to HCV-infected chimpanzees, viral load (genotype 1a); type: in vivo, chimpanzee
Method: Via oral gavage, two HCV-infected chimpanzees I (male, 56.49 kg and 11 years old; genotype 1b HCV) and II (male, 61.91 kg and 34 years old; genotype 1a HCV) each received a single dosage of 200 mg of Compound 1 in Formulation I while the HCV-infected chimpanzee III (male, 56.19 kg and 18 years old; genotype 1a HCV) was administered a single dosage of 260 mg of the non-phosphorylated analog of Compound 1 (Table 1) in Formulation I. After 12 hours, the HCV viral titer decreased from 24,100 to 10,200 IU/ml (or 58% drop) in Chimpanzee I, from 38,500 to 27,000 IU/ml (or 30% drop) in Chimpanzee II, and from 154,000 to 142,000 IU/ml (or 8% drop) in Chimpanzee III. […] All animals were fasted overnight prior to dosing and a minimum of 2 hours prior to scheduled blood sample collections. Viral load determinations were performed on plasma samples using the HCV TaqMan assay (COBAS® AmpliPrep/COBAS® TaqMan® HCV Test, Version 2, Test Code 1220) for quantitative analysis. […] There were no adverse effects, illness, nor distress seen with the three chimpanzees during the study requiring veterinarian intervention.

## CCCC(CCC)C(=O)Nc1ccn([C@@H]2O[C@H](CO[P@@](=O)(N[C@@H](C)C(=O)OC(C)C)Oc3ccccc3)[C@@H](O)C2(F)F)c(=O)n1 [Compound 1, (S)-isopropyl 2-(((S)-(((2R,3R,5R)-4,4-difluoro-3-hydroxy-5-(2-oxo-4-(2-propylpentanamido)pyrimidin-1(2H)-yl)tetrahydrofuran-2-yl)methoxy)(phenoxy)phosphoryl)amino)propanoate]
HCV luciferase replicon; Hepatitis C virus, Huh-7, 48 h
  IC50: 0.0884 ± 0.0133 µM
HCV luciferase replicon; TC50 in Huh7 / IC50 HCV replicon, 48 h
  Therapeutic Index (TC50/IC50): 198
Huh7
  CC50: 3.28 ± 0.57 µM
HEPG2
  CC50: 1.31 ± 0.21 µM
RPK9 cells
  CC50: 24.2 ± 6.4 µM
Huh7 cells; read-out: TC50 (μM) in Huh7 cells at 48 h With NBTI
  CC50: 16.4 µM
Huh7 cells; read-out: TC50 (μM) in Huh7 cells at 48 h Without NBTI
  CC50: 17.4 µM
Huh7 cells; conclusion from TC50 with/without 10 μM NBTI in Huh7 and PK9 cells
  requirement of the ENT1 transporter for cell entry: do not require the ENT1 transporter for cell entry
[1]; Pretreatment
  % of Compound 1 remaining: 100%
[1]; pH 1, aqueous buffer, 40° C., 4 hours, 200 μM
  % of Compound 1 remaining: 58%
[1]; pH 2, aqueous buffer, 40° C., 4 hours, 200 μM
  % of Compound 1 remaining: 85%
[1]; pH 4, aqueous buffer, 40° C., 4 hours, 200 μM
  % of Compound 1 remaining: 92%
[1]; pH 6, aqueous buffer, 40° C., 4 hours, 200 μM
  % of Compound 1 remaining: 100%
[1]; pH 8, aqueous buffer, 40° C., 4 hours, 200 μM
  % of Compound 1 remaining: 47%
[2]; after Day 7
  internal organs after sacrifice: healthy with no abnormality
[2]; seven day period of observation
  signs of toxicity: no signs of toxicity
Genotype 1a HCV; Chimpanzee II, single oral dosage 200 mg
  drop of HCV viral titer after 12 hours: 30%
Genotype 1a HCV; Chimpanzee II, single oral dosage 200 mg in Formulation I, titer before 38,500 IU/ml
  HCV viral titer after 12 hours: 27,000 IU/ml
Genotype 1a HCV; single oral dosage, 12 hours
  effectiveness in inhibiting HCV in chimpanzees (comparison): more effective than its non-phosphorylated analog
